Measurements published in patent EP4653444A1, “FUSED TRICYCLIC COMPOUND AS KINASE INHIBITOR” (Hangzhou Innogate Pharma Co., Ltd., priority 2023, dated 2024).

Molecular target: T1, TNK1 kinase (Homo sapiens, UniProt Q13470)
T1 sequence (Q13470 1-666): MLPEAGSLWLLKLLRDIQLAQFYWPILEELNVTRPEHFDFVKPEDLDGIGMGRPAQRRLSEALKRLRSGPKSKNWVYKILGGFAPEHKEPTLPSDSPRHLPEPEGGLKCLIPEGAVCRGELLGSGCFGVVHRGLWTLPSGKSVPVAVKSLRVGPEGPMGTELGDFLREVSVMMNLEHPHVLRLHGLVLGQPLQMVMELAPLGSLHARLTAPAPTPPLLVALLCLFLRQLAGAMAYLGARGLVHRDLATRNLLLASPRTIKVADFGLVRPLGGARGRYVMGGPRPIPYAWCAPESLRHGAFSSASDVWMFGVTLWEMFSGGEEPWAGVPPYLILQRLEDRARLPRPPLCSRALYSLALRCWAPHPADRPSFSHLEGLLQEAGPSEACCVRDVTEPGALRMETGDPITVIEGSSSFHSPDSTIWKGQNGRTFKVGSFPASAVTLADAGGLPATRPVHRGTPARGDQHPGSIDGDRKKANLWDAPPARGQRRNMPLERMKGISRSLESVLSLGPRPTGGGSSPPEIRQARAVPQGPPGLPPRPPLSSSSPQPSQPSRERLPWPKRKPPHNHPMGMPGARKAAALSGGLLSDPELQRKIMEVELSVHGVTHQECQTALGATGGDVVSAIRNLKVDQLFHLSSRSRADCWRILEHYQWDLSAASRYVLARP
Assay: TNK1 kinase activity inhibition assay (ADP-Glo)
Type: biochemical
Method: Measure compound inhibitory activity against TNK1 kinase using ADP-Glo Assay. 1× kinase reaction buffer was prepared (working concentrations: HEPES 50 mM, MgCl2 10 mM, Brij35 0.01%, EGTA 1 mM, DTT 2 mM). 2× kinase and 4× substrate buffers were prepared with the following working concentrations: For TNK1 kinase: kinase solution at 5 nM; substrate mixture containing ATP at 45 µM and MBP substrate at 0.1 mg/ mL. For ULK2 kinase: kinase solution at 0.15 nM; substrate mixture containing ATP at 6 µM and MBP substrate at 0.1 mg/mL. Compounds were serially diluted in DMSO and shaken on an orbital shaker for 20 minutes. 2× kinase solution was prepared using 1× kinase reaction buffer. 20 nL of compound solution was transferred to a 384-well plate. 2 µL of kinase solution was added to each well of the reaction plate. The plate was sealed with adhesive film, centrifuged at 1000 rpm for 60 seconds, and incubated at 25°C for 10 minutes. 2× ATP&MBP mixture was prepared using 1× kinase reaction buffer. 2 µL of 2× ATP&substrate mixture was added to the reaction plate. The plate was sealed with adhesive film, centrifuged at 1000 rpm for 60 seconds, and incubated at 25°C for 60 minutes. 4 µL of ADP-Glo reagent was transferred to the 384-well reaction plate, centrifuged at 1000 rpm for 1 minute, and incubated at 25°C for 40 minutes. 8 µL of Detection solution was transferred to the 384-well reaction plate, centrifuged at 1000 rpm for 1 minute, and incubated at 25°C for 40 minutes. Relative luminescence units (RLU) were measured using a BMG microplate reader, with signal intensity representing kinase activity level. The inhibition percentage was calculated as follows: % inhibition = 100% - [(Compound RLU - Positive Control RLU)/(Negative Control RLU - Positive Control RLU)] × 100%. The IC50 values (half-maximal inhibitory concentration) of compounds were determined by fitting the data to the following nonlinear regression equation using GraphPad Prism 7.0 software: Y = Bottom + (Top - Bottom)/(1 + 10^((LogIC50 - X) × Hill Slope)), where: X = log(compound concentration), Y = % inhibition. Table1: Inhibitory activity of compounds against ULK (IC50, nM)

CNC(=O)c1ccccc1Nc1cc(Nc2cc3c(cc2OC)N2CCN(C4CCN(C)CC4)C[C@H]2CO3)ncc1C(F)(F)F [Compound D2S]
IC50: < 10 nM
